This passage reports IC50 results from patent US10112941B2, “Tricyclic compounds as anticancer agents” (BRISTOL-MYERS SQUIBB COMPANY, priority 2013, dated 2018).

The target of the test is BRD4 (Homo sapiens, UniProt O60885). Kind of test: Time Resolved Fluorescence Resonance Energy Transfer (TR-FRET) binding assay, BRD4. The following applies: one of the FRET assays described; read-out: FRET BRD4 IC50.

Broadly, the IC50 is the point on the concentration scale where inhibition reaches its midpoint. Regarding `Cc1nnn(C)c1-c1cnc2c3ccc(C(C)(C)O)cc3n(C(c3cccc(F)c3F)C3CCOCC3)c2c1` (single isomer, unassigned) [Example 95, 2-{5-[(2,3-Difluorophenyl)(oxan-4-yl)methyl]-3-(dimethyl-1H-1,2,3-triazol-5-yl)-5H-pyrido[3,2-b]indol-7-yl}propan-2-ol], the IC50 was below 5 nM.
Regarding `Cc1nnn(C)c1-c1cnc2c3ccc(C(C)(C)O)cc3n(C(c3ccc(F)c(F)c3)C3CCOCC3)c2c1` (single isomer, unassigned) [Example 96, 2-{5-[(3,4-Difluorophenyl)(oxan-4-yl)methyl]-3-(dimethyl-1H-1,2,3-triazol-5-yl)-5H-pyrido[3,2-b]indol-7-yl}propan-2-ol], the IC50 was below 25 nM.
As to `Cc1nnn(C)c1-c1cnc2c3ccc(C(C)(C)O)cc3n(C(c3ccc(F)c(F)c3)C3CCOCC3)c2c1` (single isomer, unassigned) [Example 97, 2-{5-[(3,4-Difluorophenyl)(oxan-4-yl)methyl]-3-(dimethyl-1H-1,2,3-triazol-5-yl)-5H-pyrido[3,2-b]indol-7-yl}propan-2-ol], the IC50 was below 5 nM.
For `Cc1nnn(C)c1-c1cnc2c3ccc(C(C)(C)O)cc3n(C(c3cc(F)cc(F)c3)C3CCOCC3)c2c1` (single isomer, unassigned) [Example 98, 2-{5-[(3,5-Difluorophenyl)(oxan-4-yl)methyl]-3-(dimethyl-1H-1,2,3-triazol-5-yl)-5H-pyrido[3,2-b]indol-7-yl}propan-2-ol], the IC50 was below 5 nM.
As to `Cc1nnn(C)c1-c1cnc2c3ccc(C(C)(C)O)cc3n(C(c3cc(F)cc(F)c3)C3CCOCC3)c2c1` (single isomer, unassigned) [Example 99, 2-{5-[(3,5-Difluorophenyl)(oxan-4-yl)methyl]-3-(dimethyl-1H-1,2,3-triazol-5-yl)-5H-pyrido[3,2-b]indol-7-yl}propan-2-ol], the IC50 was below 5 nM.
In the case of `Cc1nnn(C)c1-c1cnc2c3ccc(C(C)(C)O)cc3n(C(c3cccc(F)c3)C3CCOCC3)c2c1` (single isomer, unassigned) [Example 100, 2-[3-(Dimethyl-1H-1,2,3-triazol-5-yl)-5-[(3-fluorophenyl)(oxan-4-yl)methyl]-5H-pyrido[3,2-b]indol-7-yl]propan-2-ol], the IC50 was below 5 nM.
On to `Cc1nnn(C)c1-c1cnc2c3ccc(C(C)(C)O)cc3n(C(c3cccc(F)c3)C3CCOCC3)c2c1` (single isomer, unassigned) [Example 101, 2-[3-(Dimethyl-1H-1,2,3-triazol-5-yl)-5-[(3-fluorophenyl)(oxan-4-yl)methyl]-5H-pyrido[3,2-b]indol-7-yl]propan-2-ol], for which the IC50 is below 25 nM.
Turning to `Cc1nnn(C)c1-c1cnc2c3ccc(C(C)(C)O)cc3n(C(c3c(F)cc(F)cc3F)C3CCOCC3)c2c1` (single isomer, unassigned) [Example 102, 2-[3-(Dimethyl-1H-1,2,3-triazol-5-yl)-5-[oxan-4-yl(2,4,6-trifluorophenyl)methyl]-5H-pyrido[3,2-b]indol-7-yl]propan-2-ol], the IC50 was below 5 nM.
The figure for `Cc1nnn(C)c1-c1cnc2c3ccc(C(C)(C)O)cc3n(C(c3c(F)cc(F)cc3F)C3CCOCC3)c2c1` (single isomer, unassigned) [Example 103, 2-[3-(Dimethyl-1H-1,2,3-triazol-5-yl)-5-[oxan-4-yl(2,4,6-trifluorophenyl)methyl]-5H-pyrido[3,2-b]indol-7-yl]propan-2-ol] is below 5 nM; for `Cc1nnn(C)c1-c1cnc2c3c(F)cc(C(C)(C)O)cc3n(C(c3c(F)cc(F)cc3F)C3CCOCC3)c2c1` (single isomer, unassigned) [Example 104, 2-[3-(Dimethyl-1H-1,2,3-triazol-5-yl)-9-fluoro-5-[oxan-4-yl(2,4,6-trifluorophenyl)methyl]-5H-pyrido[3,2-b]indol-7-yl]propan-2-ol] it is below 5 nM.
With `Cc1nnn(C)c1-c1cnc2c3c(F)cc(C(C)(C)O)cc3n(C(c3c(F)cc(F)cc3F)C3CCOCC3)c2c1` (single isomer, unassigned) [Example 105, 2-[3-(Dimethyl-1H-1,2,3-triazol-5-yl)-9-fluoro-5-[oxan-4-yl(2,4,6-trifluorophenyl)methyl]-5H-pyrido[3,2-b]indol-7-yl]propan-2-ol], the IC50 was below 5 nM.
Regarding `Cc1nnn(C)c1-c1cnc2c3c(F)cc(C(C)(C)O)cc3n(C(c3cc(F)ccc3F)C3CCOCC3)c2c1` (single isomer, unassigned) [Example 106, 2-{5-[(2,5-Difluorophenyl)(oxan-4-yl)methyl]-3-(dimethyl-1H-1,2,3-triazol-5-yl)-9-fluoro-5H-pyrido[3,2-b]indol-7-yl}propan-2-ol], the concentration for half-maximal inhibition (IC50) was below 5 nM.
In the case of `Cc1nnn(C)c1-c1cnc2c3c(F)cc(C(C)(C)O)cc3n(C(c3cc(F)ccc3F)C3CCOCC3)c2c1` (single isomer, unassigned) [Example 107, 2-{5-[(2,5-Difluorophenyl)(oxan-4-yl)methyl]-3-(dimethyl-1H-1,2,3-triazol-5-yl)-9-fluoro-5H-pyrido[3,2-b]indol-7-yl}propan-2-ol], the IC50 is below 5 nM.
`Cc1nnn(C)c1-c1cnc2c3c(F)cc(C(C)(C)O)cc3n(C(c3cccc(F)c3F)C3CCOCC3)c2c1` (single isomer, unassigned) [Example 108, 2-{5-[(2,3-Difluorophenyl)(oxan-4-yl)methyl]-3-(dimethyl-1H-1,2,3-triazol-5-yl)-9-fluoro-5H-pyrido[3,2-b]indol-7-yl}propan-2-ol]: the IC50 was below 5 nM.
The figure for `Cc1nnn(C)c1-c1cnc2c3c(F)cc(C(C)(C)O)cc3n(C(c3cccc(F)c3F)C3CCOCC3)c2c1` (single isomer, unassigned) [Example 109, 2-{5-[(2,3-Difluorophenyl)(oxan-4-yl)methyl]-3-(dimethyl-1H-1,2,3-triazol-5-yl)-9-fluoro-5H-pyrido[3,2-b]indol-7-yl}propan-2-ol] is below 5 nM; for `Cc1nnn(C)c1-c1cnc2c3c(F)cc(C(C)(C)O)cc3n(C(c3ccc(F)cc3F)C3CCOCC3)c2c1` (single isomer, unassigned) [Example 110, 2-{5-[(2,4-Difluorophenyl)(oxan-4-yl)methyl]-3-(dimethyl-1H-1,2,3-triazol-5-yl)-9-fluoro-5H-pyrido[3,2-b]indol-7-yl}propan-2-ol] it is below 5 nM; for `Cc1nnn(C)c1-c1cnc2c3c(F)cc(C(C)(C)O)cc3n(C(c3ccc(F)cc3F)C3CCOCC3)c2c1` (single isomer, unassigned) [Example 111, 2-{5-[(2,4-Difluorophenyl)(oxan-4-yl)methyl]-3-(dimethyl-1H-1,2,3-triazol-5-yl)-9-fluoro-5H-pyrido[3,2-b]indol-7-yl}propan-2-ol] it is below 5 nM.
On to `Cc1nnn(C)c1-c1cnc2c3c(F)cc(C(C)(C)O)cc3n(C(c3cccc(F)c3)C3CCOCC3)c2c1` (single isomer, unassigned) [Example 112, 2-[3-(Dimethyl-1H-1,2,3-triazol-5-yl)-9-fluoro-5-[(3-fluorophenyl)(oxan-4-yl)methyl]-5H-pyrido[3,2-b]indol-7-yl]propan-2-ol], for which the IC50 was below 5 nM.
In the case of `Cc1nnn(C)c1-c1cnc2c3c(F)cc(C(C)(C)O)cc3n(C(c3cccc(F)c3)C3CCOCC3)c2c1` (single isomer, unassigned) [Example 113, 2-[3-(Dimethyl-1H-1,2,3-triazol-5-yl)-9-fluoro-5-[(3-fluorophenyl)(oxan-4-yl)methyl]-5H-pyrido[3,2-b]indol-7-yl]propan-2-ol] it was below 1500 nM; in that of `Cc1nnn(C)c1-c1cnc2c3c(S(C)(=O)=O)cccc3n(C(c3ccccc3F)C3CCOCC3)c2c1` (single isomer, unassigned) [Example 115, 5-{5-[(2-Fluorophenyl)(oxan-4-yl)methyl]-9-methanesulfonyl-5H-pyrido[3,2-b]indol-3-yl}-1,4-dimethyl-1H-1,2,3-triazole], below 5 nM; in that of `Cc1nnn(C)c1-c1cnc2c3c(S(C)(=O)=O)cccc3n(C(c3ccccc3F)C3CCOCC3)c2c1` (single isomer, unassigned) [Example 116, 5-{5-[(2-Fluorophenyl)(oxan-4-yl)methyl]-9-methanesulfonyl-5H-pyrido[3,2-b]indol-3-yl}-1,4-dimethyl-1H-1,2,3-triazole], below 25 nM.
For `Cc1nnn(C)c1-c1cnc2c3c(S(C)(=O)=O)cccc3n(C(c3c(F)cc(F)cc3F)C3CCOCC3)c2c1` (single isomer, unassigned) [Example 117, 5-{9-Methanesulfonyl-5-[oxan-4-yl(2,4,6-trifluorophenyl)methyl]-5H-pyrido[3,2-b]indol-3-yl}-1,4-dimethyl-1H-1,2,3-triazole], the IC50 is below 5 nM.
On to `Cc1nnn(C)c1-c1cnc2c3c(S(C)(=O)=O)cccc3n(C(c3c(F)cc(F)cc3F)C3CCOCC3)c2c1` (single isomer, unassigned) [Example 118, 5-{9-Methanesulfonyl-5-[oxan-4-yl(2,4,6-trifluorophenyl)methyl]-5H-pyrido[3,2-b]indol-3-yl}-1,4-dimethyl-1H-1,2,3-triazole], for which the IC50 was below 5 nM.
In the case of `COc1ccc(C(C2CCOCC2)n2c3cc(C(C)(C)O)ccc3c3ncc(-c4c(C)nnn4C)cc32)c(F)c1` (single isomer, unassigned) [Example 119, 2-[3-(Dimethyl-1H-1,2,3-triazol-5-yl)-5-[(2-fluoro-4-methoxyphenyl)(oxan-4-yl)methyl]-5H-pyrido[3,2-b]indol-7-yl]propan-2-ol] it was below 5 nM; in that of `COc1ccc(C(C2CCOCC2)n2c3cc(C(C)(C)O)ccc3c3ncc(-c4c(C)nnn4C)cc32)c(F)c1` (single isomer, unassigned) [Example 120, 2-[3-(Dimethyl-1H-1,2,3-triazol-5-yl)-5-[(2-fluoro-4-methoxyphenyl)(oxan-4-yl)methyl]-5H-pyrido[3,2-b]indol-7-yl]propan-2-ol], below 5 nM.
For the compound `COc1ccc(C(C2CCOCC2)n2c3cc(C(C)(C)O)ccc3c3ncc(-c4c(C)nnn4C)cc32)c(F)c1F` (single isomer, unassigned) [Example 121, 2-{5-[(2,3-Difluoro-4-methoxyphenyl)(oxan-4-yl)methyl]-3-(dimethyl-1H-1,2,3-triazol-5-yl)-5H-pyrido[3,2-b]indol-7-yl}propan-2-ol], the concentration for half-maximal inhibition (IC50) was below 25 nM.
